According to patent US12478603B2, “Serum metabolites as biomarkers for carnitine treatment of sepsis” (priority 2020, dated 2025):
Entries after “also recorded” stand apart in the source; their conditions may differ. Read-outs that look alike come from different tables or passages of the source.

Legend:
[1] = test system: patients with septic shock; details: cited from earlier work; for absolute mortality reduction at 28 days compared to saline placebo: 18 g dose, non-significant
[2] = test system: patients with septic shock; assay: Pharmacometabolomic analysis of the RACE trial: mortality after L-carnitine stratified by pre-treatment serum acetylcarnitine; assay type: in vivo, human; details: for 90-day mortality: high (≥36 μM) pretreatment acetylcarnitine, placebo 100%; for hazard ratio (Mantel-Haenszel) / Kaplan-Meier curve, mortality benefit: 18 g vs placebo
From the text: Patient selection: Detailed inclusion and exclusion criteria have been previously reported (see, e.g., Jones (2018) “Effect of Levocarnitine vs Placebo as an Adjunctive Treatment for Septic Shock: The Rapid Administration of Carnitine in Sepsis (RACE) Randomized Clinical Trial” JAMA Netw Open 1: e186076, incorporated herein by reference). Briefly, patients presenting with suspected or confirmed infection and meeting consensus criteria for septic shock including administration of continuous vasopressors despite adequate fluid resuscitation, an elevated lactate>2 mmol/L, and a SOFA score of at least 5 were eligible for inclusion. All patients enrolled in the clinical trial were included in the present analysis with the exception of two patients who withdrew consent following randomization and 12 that lacked a T0 sample (FIG. 6).
Blood sampling. Following consent but prior to initiation of therapy, whole blood was drawn into serum separator tubes (SST; Vacutainer, Becton Dickinson, Franklin Lakes, NJ) and was allowed to clot for at least 30 minutes at room temperature. A portion of whole blood was aliquoted, while the remainder was centrifuged to yield serum. All samples were then frozen at −80° C. within 60 minutes of the initial sample acquisition. This approach has been previously utilized to yield samples appropriate for metabolomics analyses (see, e.g., Puskarich (2015) “Pharmacometabolomics of L-carnitine treatment response phenotypes in patients with septic shock” Ann Am Thorac Soc 12: 46-56, incorporated herein by reference). At the completion of the clinical trial, serum samples were shipped on dry ice to the University of Michigan for assay.
Measurement of Acylcarnitines: Analysis was performed consistent with prior methods (see, e.g., Puskarich (2018) “Septic Shock Nonsurvivors Have Persistently Elevated Acylcarnitines Following Carnitine Supplementation” Shock 49: 412-419, incorporated herein by reference). Briefly, at the time of analysis, serum samples were thawed on ice and extraction solvent was prepared consisting of a 1:1:1 mixture of methanol:acetonitrile:acetone plus a 1:200 dilution of a stock mixture of stable-isotope labeled acylcarnitine standards dissolved according to manufacturer instructions (NSK-B, Cambridge Isotope Laboratories). Acylcarnitine species were then analyzed without derivatization by RPLC-MS/MS using an Agilent 1200 LC coupled to an Agilent 6410 tandem quadrupole (Santa Clara, CA). A pooled sample generated by combining a small volume of all study samples was injected every 10th run and was used for intra-batch and inter-batch drift correction as described below. Absolute quantitation by isotope dilution mass spectrometry was performed for acylcarnitine species with exact-matching stable isotope internal standards (L-carnitine, C2, C3, C4, C5, C8, C14, C16) by multiplying the ratio of the unlabeled peak area/labeled peak area by the known concentration of acylcarnitine in the extraction solvent, then adjusting for dilution of the original serum sample. Other acylcarnitine species were limited to relative quantification by peak area.
By 90 days, 90% of the deaths occurred and the interaction term between L-carnitine treatment and mortality flattened (FIG. 7). Based on this analysis, 90-day mortality was chosen as the primary clinical outcome.
Statistical analysis: For logistic regression modeling, treatment assignment was scaled from 0 (placebo) to 1 (18 g L-carnitine) and age and SOFA score were z-scale normalized. Two main models were developed for each metabolite. The base model was described by log it(p)=B0+BD*Dose+BM*Metabolitei, where p is the probability of mortality in 90 days. The treatment interaction was modeled with: log it(p)=B0+(BD*Dose)+(BM*Metabolitei)+(BMD*Metabolitei)*Dose […]

Q: Which results are given for C[N+](C)(C)C[C@H](O)CC(=O)[O-] [L-carnitine]?
A: reduction in sequential organ failure assessment (SOFA) score at 48 hours ([1]; 6, 12 or 18 g): none of the tested L-carnitine doses produced a significant reduction; absolute mortality reduction at 28 days compared to saline placebo ([1]; intention to treat analysis): 3%; absolute mortality reduction at 28 days compared to saline placebo ([1]; per protocol analysis): 6%; predicted probability of 90-day mortality (interaction logistic regression model) ([2]; as baseline acetylcarnitine concentration increases, dose 0, 6, 12, 18 g): declines with increasing L-carnitine dose; 90-day mortality ([2]; L-carnitine 18 g, p=0.002): 50%; 90-day mortality ([2]; L-carnitine any dose, p=0.02): 69%; proportion of 90-day non-survivors by dose received ([2]; low baseline acetylcarnitine tertile (normalized [−2.21, −0.508], n=79), placebo, 6, 12, 18 g, Fisher's exact test p=0.81): not associated with dose received; also recorded: not different between placebo or L-carnitine doses; treatment benefit (90-day mortality) ([2]; patients with acetylcarnitine less than 36 μM): no treatment benefit; treatment / mortality benefit ([2]; patients with acetylcarnitine ≥26 μM, L-carnitine 18 g, additional analysis (trend)): received a treatment benefit; also recorded: derived a mortality benefit; hazard ratio (Mantel-Haenszel) ([2]; scenario 1: no acetylcarnitine threshold): not significant; Kaplan-Meier curve, mortality benefit ([2]; scenario 1: no acetylcarnitine threshold, n=170, p=0.28): no mortality benefit; hazard ratio (Mantel-Haenszel) ([2]; scenario 2: acetylcarnitine (C2) threshold ≥26 μM): improved but is not significant; Kaplan-Meier curve, mortality benefit ([2]; scenario 2: acetylcarnitine (C2) threshold ≥26 μM, 52 patients, p=0.14): no mortality benefit; hazard ratio (Mantel-Haenszel) ([2]; scenario 3: acetylcarnitine (C2) threshold ≥30 μM): significant and favors L-carnitine (18 g); Kaplan-Meier curve, mortality benefit ([2]; scenario 3: acetylcarnitine (C2) threshold ≥30 μM, 42 patients, p=0.01): mortality benefit; hazard ratio (Mantel-Haenszel) ([2]; scenario 4: acetylcarnitine (C2) threshold ≥36 μM): significant; Kaplan-Meier curve, mortality benefit ([2]; scenario 4: acetylcarnitine (C2) threshold ≥36 μM, 34 patients, p=0.004): mortality benefit
